Measurements reported in patent publication US4943579A, “Water soluble prodrugs of camptothecin” (priority 1987, dated 1990).
Converted amounts (≈) assume the structure as drawn. Counter-ions that a name gives are not always drawn. Like-named read-outs stand apart in the source and are kept apart here.

How the values were obtained:
[1] = In vitro human plasma hydrolysis of prodrugs; format: in vitro ADME; conditions: initial drug concentration 50 mcg/ml, read-out: t1/2 of hydrolysis in human plasma
Text: (§1) The data are shown to reflect the relative hydrolysis rates as measured by t1/2, the time required for the concentration of the drug to become one half of the starting concentration. Freshly obtained samples of human and murine plasma were used in these studies.
(§2) ^(a) Initial drug concentration (50 mcg/ml)

L-1210 lymphoid leukemia = experiment: Anti-tumor activity in CDF-1 mice implanted with L-1210 lymphoid leukemia (IP/IP, QD4 × 2); format: in vivo; conditions: Mus musculus, read-out: T/C; for response vs control in vivo at 50 mg/kg: 50 mg/Kg per injection; for response vs control in vivo at 30 mg/kg: 30 mg/Kg per injection
Experimental: (§3) Table 1 represents the aqueous solubility and the anti-tumor activity of these compounds. The anti-tumor testing was carried out in CDF-1 mice in which were implanted L-1210 lymphoid leukemia, and the drug is delivered intraperitoneally on a schedule of QD4X2.

[2] = In vitro murine plasma hydrolysis of prodrugs; format: in vitro ADME; conditions: mouse, initial drug concentration 50 mcg/ml, read-out: t1/2 of hydrolysis in murine plasma
Text: as §1, §2

Aqueous solubility = format: physicochemical; conditions: water
Experimental: as §3

[3] = cited from earlier work
Walker 256 tumor = conditions: rats; cited from earlier work
[4] = subsequent biological evaluation in earlier reports; cited from earlier work
leukemia L-1210 = conditions: mice; cited from earlier work
[5] = preclinical, beagle and rhesus monkey; cited from earlier work
[6] = early clinical studies; cited from earlier work
[7] = animal models; Wani et al. 1980; cited from earlier work

Row | Structure (SMILES) | half-life [1] [min] | half-life [2] [min] | solubility (Aqueous solubility; read-out: Aqueous solubility) [µg/mL] | response vs control in vivo at 30 mg/kg (L-1210 lymphoid leukemia; L1210, IP/IP, QD4 × 2) [%] | further results
1 | CC[C@@]1(OC(=O)C(N)CCCCCN)C(=O)OCc2c1cc1n(c2=O)Cc2cc3ccccc3nc2-1 (some centres unmarked) [Formula 12] | 20 | 48 | 15000 | – | response vs control in vivo at 50 mg/kg (L-1210 lymphoid leukemia; L1210, IP/IP, QD4 × 2): 253%
2 | CC[C@@]1(OC(=O)CN)C(=O)OCc2c1cc1n(c2=O)Cc2cc3ccccc3nc2-1 [Formula 7, Camptothecin-20-O-glycinate.HCl] | 15 | 36 | 6000 | – | response vs control in vivo at 15 mg/kg (L-1210 lymphoid leukemia; L1210, 15 mg/Kg per injection, IP/IP, QD4 × 2): 162%
3 | CCN(CC)CC(=O)O[C@]1(CC)C(=O)OCc2c1cc1n(c2=O)Cc2cc3ccccc3nc2-1 [Formula 10, Camptothecin-20-O-(N,N-diethyl)glycinate.HCl] | 45 | – | 5000 | 256 | –
4 | CC[C@@]1(O)C(=O)OCc2c1cc1n(c2=O)Cc2cc3ccccc3nc2-1 [Camptothecin] | – | – | – | – | response vs control in vivo at 8 mg/kg (L-1210 lymphoid leukemia; L1210, ip): 197%; Solubility in aqueous vehicles ([3]; aqueous vehicles suitable for parenteral administration): practically insoluble; Carcinostatic activity, Walker 256 tumor (Walker 256 tumor): inhibitor activity; Toxicity [4]: highly toxic; Carcinostatic activity, leukemia L-1210 (leukemia L-1210): inhibitor activity; solubility (Aqueous solubility): 50 µg/mL (≈ 144 µM); Eosinophilia and bone marrow depression [5]: moderate eosinophilia and bone marrow depression; Hepatotoxicity [5]: Minimal hepatotoxicity; Major dose-limiting toxic effect [5]: Hemorrhagic enterocolitis
5 | CC[C@@]1(OC(=O)C(N)CCC(=O)O)C(=O)OCc2c1cc1n(c2=O)Cc2cc3ccccc3nc2-1 (some centres unmarked) [Formula 13] | 18 | 35 | 6000 | – | response vs control in vivo at 50 mg/kg (L-1210 lymphoid leukemia; L1210, IP/IP, QD4 × 2): 154%
6 | CCNCC(=O)O[C@]1(CC)C(=O)OCc2c1cc1n(c2=O)Cc2cc3ccccc3nc2-1 [Formula 9] | 18 | 40 | 8000 | 170 | –
7 | CC[C@@]1(OC(=O)CNC)C(=O)OCc2c1cc1n(c2=O)Cc2cc3ccccc3nc2-1 [Formula 8] | 13 | 28 | 4000 | 191 | –
8 | CC[C@@]1(OP(=O)(O)O)C(=O)OCc2c1cc1n(c2=O)Cc2cc3ccccc3nc2-1 [Formula 15, Camptothecin-20-phosphate sodium salt] | 20 | 27 | 8000 | – | response vs control in vivo at 44 mg/kg (L-1210 lymphoid leukemia; L1210, 44 mg/Kg per injection, IP/IP, QD4 × 2): 192%
9 | CC[C@@]1(OC(=O)CCC(=O)O)C(=O)OCc2c1cc1n(c2=O)Cc2cc3ccccc3nc2-1 [Formula 14, Camptothecin-20-O-hemisuccinate sodium salt] | 16 | 40 | 13000 | – | response vs control in vivo at 47 mg/kg (L-1210 lymphoid leukemia; L1210, 47 mg/Kg per injection, IP/IP, QD4 × 2): 200%
10 | CC[C@@](O)(C(=O)O)c1cc2n(c(=O)c1CO)Cc1cc3ccccc3nc1-2 [Sodium camptothecin] | – | – | – | – | Solubility in water ([3]; in water): > 50000 µg/mL; Clinical outcome [6]: disappointing; Clinical toxicity [6]: unexpected toxicity that precluded achievement of therapeutically useful doses; Potency relative to parent camptothecin [7]: 10-20%
